Test results as given in US8536307B2, “Anticalins” (Pieris AG, priority 1997, dated 2013).

B1: Bbp: Recombinant bilin-binding protein from Pieris brassicae (modified, encoded on pBBP21/pBBP22), produced as a control (protein)
chain: DVYHDGACPEVKPVDNFDWSQYHGKWWEVAKYPNSVEKYGKCGWAEYTPEGKSVKVSNYHVIHGKEYFIEGTAYPVGDSKIGKIYHSLTYGGVTKENVFNVLSTDNKNYIIGYYCKYDEDKKGHQDFVWVLSRSMVLTGEAKTAVENYLIGSPVVDSQKLVYSDFSEAACKVNNLAEAKVLANRELDKYGVSDYYKNLINNAKTVEGVKALIDEILAALP
modifications: left off: small tags and cut ends
B2: HepC4: Anticalin (Bbp mutein) binding hepatitis C peptide epitope, produced as fusion with Strep-Tag II and albumin-binding domain (protein)
chain: DVYHDGACPEVKPVDNFDWSQYHGKWWEVAKYPQAPGKYGKCGWAEYTPEGKSVKVSPYNVIHGKEYFAEGTAYPVGDSKIGKIYHSWTGGGLTAEWVFNVLSTDNKNYIIGYPCRYDEDKKGHLDPVWVLSRSMVLTGEAKTAVENYLIGSPVVDSQKLVYSDFSEAACKVNNLAEAKVLANRELDKYGVSDYYKNLINNAKTVEGVKALIDEILAALP
modifications: left off: small tags and cut ends
B3: HepC1: Anticalin (Bbp mutein) binding hepatitis C peptide epitope, produced as fusion with Strep-Tag II and albumin-binding domain (protein)
chain: DVYHDGACPEVKPVDNFDWSQYHGKWWEVAKYPKTKQKYEKCGWAEYTPEGKSVKVSLYHVIHGKEYFFEGTAYPVGDSKIGKIYHSVTAGGFTSEQVFSVLSTDNKNYIIGYACYYDEDKKGHVDFVWVLSRSMVLTGEAKTAVENYLIGSPVVDSQKLVYSDFSEAACKVNNLAEAKVLANRELDKYGVSDYYKNLINNAKTVEGVKALIDEILAALP
modifications: left off: small tags and cut ends

Experiments:
[1] = molecular target: anticalin FluC, mutein of Pieris brassicae bilin-binding protein (Bbp): Asn34Ser, Ser35Lys, Val36Asn, Glu37Gly, Gly40Arg, Asn58Arg, His60Thr, Ile69Gln, Leu88Arg (Pieris brassicae, UniProt P09464, E52G/F142H/F83V/G55R/H75T/I84Q/K102S/K110R/K131R/K150M/L103R/N112G/N16D/N36Q/N49S/N73R/Q140L/S50K/V108K/V51N/Y105V/Y129R); settings: fluorescence titration, excitation 280 nm, emission 340 nm, 1 μM anticalin, PBS with 1 mM EDTA, pH 7.4, 25° C.; [P]t additionally fitted as a free parameter
UniProt P09464, sequence (P09464 other isoform, or with tags, fused parts or gaps with the stated changes): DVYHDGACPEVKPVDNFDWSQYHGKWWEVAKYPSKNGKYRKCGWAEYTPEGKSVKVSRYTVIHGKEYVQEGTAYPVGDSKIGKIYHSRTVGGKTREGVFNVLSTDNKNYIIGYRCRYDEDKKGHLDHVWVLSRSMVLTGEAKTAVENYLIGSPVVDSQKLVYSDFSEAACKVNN

[2] = Fluorescence titration (decrease of intrinsic protein fluorescence) with ligand fluorescein; assay type: binding; settings: measurement for comparison, fluorescein ligands
Description: The ligand-binding characteristics of the anticalins, were then determined by fluorescence titration. Here, the decrease in the intrinsic tyrosine and tryptophan fluorescence of the protein upon complex formation with the ligand was measured. The measurements were made with a fluorescence photometer (MS III, Photon Technology International Inc.) at an excitation wavelength of 280 nm (slit width 5 nm) and emission wavelength of 340 nm (slit width 10 nm). Fluorescein, 4-amino-fluorescein as well as its conjugate with glutaric acid from Example 2 were used as ligands.
PBS with addition of 1 mM EDTA, pH 7.4 (adjusted with NaOH) served as buffer system. […] For FluA and Bbp, the corrected calculated extinction coefficients in the presence of guanidinium chloride according to Gill and von Hippel (Anal. Biochem. 182 (1989), 319-326) of 59755 M^−1 cm^−1 (FluA) as well as 54150 M^−1 cm^−1 (Bbp) were used.
For the measurement, 2 ml of the anticalin solution was applied in a quartz cuvette equipped with a stirring bar and thermostatted at 25° C. in the sample holder of the photometer. […] After every titration step the sample was incubated for 1 minute with stirring for equilibration, and the fluorescence signal was measured as an average value over 10 s. […]
[formula] Here, F is the normalized fluorescence intensity and [P]t the concentration of the anticalin. […]

[3] = molecular target: biotinylated synthetic hepatitis C-peptide epitope, peptide fragment no. 59 from the surface protein NS4 of HCV (SEQ ID NO:13) (Hepatitis C virus genotype 1a, UniProt P27958); assay: Sandwich-ELISA for detection of hepatitis C peptide epitope; settings: ranking of signal strength
Description: For the ELISA, the wells in a microtiter plate (ELISA-STRIP, 2×8 wells, KO, F-form, high binding capacity, Greiner) were each filled with 200 μl of a solution of 20 mg/ml HSA in 50 mM NaHCO3 pH 9.6 and were incubated for 1 hour at RT. After removal of the solution, the unoccupied binding sites were saturated with 200 μl 3% w/v BSA in PBS with 0.5% v/v Tween 20 for 1 hour. After washing three times with PBST, 50 μl of the undiluted periplasmic protein extract were filled into the respective first well of a row. 50 μl PBS were first placed into each of the subsequent wells of each row. 50 μl of the periplasmic protein extract were then pipetted into the respective second well, were mixed, and, starting from this, 1:2 dilutions in the subsequent wells were prepared in a stepwise manner. The periplasmic protein extract with the Bbp, which was made using pBBP22 as expression plasmid, served as a control.
After 1 hour incubation at RT washing followed three times with PBST, followed by pipetting of 200 μl of the ligand solution (SEQ ID NO:13, 1 μM in PBST) into each well. […] To this end, 100 μl of a solution of 0.5 mg/ma p-nitrophenylphosphate (Amresco) in AP-buffer were placed in each well and product formation was measured by absorption at 405 nm in a SpectraMax 250 photometer (Molecular Devices) as dA/dt number.

Row | Molecule | Dissociation constant (Kd) [1] [nM] | sandwich-ELISA signal in comparison between anticalins [3] | also measured
1 | O=C1OC2(c3ccc(O)cc3Oc3cc(O)ccc32)c2ccccc21 [Fluorescein, fluorescein] | 411 ± 20 |  | 
2 | O=C(O)CCCC(=O)Nc1ccc2c(c1)C(=O)OC21c2ccc(O)cc2Oc2cc(O)ccc21 [4-Glutarylamidofluorescein, 4-glutarylamido-fluorescein] | 78 ± 3 |  | 
3 | Nc1ccc2c(c1)C(=O)OC21c2ccc(O)cc2Oc2cc(O)ccc21 [4-Aminofluorescein, 4-amino-fluorescein] | 299 ± 41 |  | 
4 | B1 |  |  | binding effect in fluorescence titration (dissociation constant) [2]: so weak that a dissociation constant could not be determined
5 | B2 |  | followed by HepC4 | 
6 | B3 |  | strongest | 
